# Data as given in ChEMBL document CHEMBL5726389, “Heterocyclic compounds and uses thereof” (2017).
# Assay: The TLC plates are then dried, exposed to a phosphorimager screen (Storm, Amersham), and quantitated. For each compound, kinase activity is measured at 10-12 inhibitor concentrations representing two-fold dilutions from the highest concentration tested (typically, 200 μM).
row,IC50,SMILES
1,in the range around 5.5 µM,C[C@H](NC(=O)c1c(N)nn2cccnc12)c1cc2cccc(Cl)c2c(=O)n1-c1ccc(S(C)(=O)=O)cc1
2,in the range around 5.5 µM,C[C@H](NC(=O)c1c(N)nn2cccnc12)c1nc2cccc(Cl)c2c(=O)n1-c1ccc(F)c(F)c1
3,in the range around 5.5 µM,C[C@H](NC(=O)c1c(N)nn2cccnc12)c1cc2cccc(Cl)c2c(=O)n1-c1cccnc1
4,in the range around 5.5 µM,C[C@H](NC(=O)c1c(N)nn2cccnc12)c1cc2cccc(OCC(F)(F)F)c2c(=O)n1-c1ccccc1
5,in the range around 5.5 µM,C[C@H](NC(=O)c1c(N)nn2cccnc12)c1cc2cccc(-c3cnn(CC#N)c3)c2c(=O)n1-c1ccccc1
6,in the range around 5.5 µM,C[C@H](NC(=O)c1c(N)ncn2ccnc12)c1cc2cccc(Cl)c2c(=O)n1-c1ccccc1
7,in the range around 5.5 µM,C[C@H](NC(=O)c1c(N)nn2cccnc12)c1nc2cccc(Cl)c2c(=O)n1-c1ccc(F)cc1
8,in the range around 5.5 µM,C[C@H](NC(=O)c1nccnc1N)c1cc2cccc(C(F)(F)F)c2c(=O)n1-c1ccccc1
9,in the range around 5.5 µM,C[C@H](NC(=O)c1c(N)nn2cccnc12)c1cc2cccc(Cl)c2c(=O)n1C1CCC1
10,in the range around 5.5 µM,CC(=O)Cc1cccc2nc([C@H](C)NC(=O)c3c(N)nn4cccnc34)n(-c3ccccc3)c(=O)c12
11,in the range around 5.5 µM,CCS(=O)(=O)NCCn1c([C@H](C)NC(=O)c2c(N)nn3cccnc23)cc2cccc(Cl)c2c1=O
12,in the range around 5.5 µM,C[C@H](NC(=O)c1c(N)nn2cccnc12)c1cc2cccc(Cl)c2c(=O)n1CCNS(C)(=O)=O
13,in the range around 5.5 µM,CNS(=O)(=O)CCn1c([C@H](C)NC(=O)c2c(N)nn3cccnc23)cc2cccc(Cl)c2c1=O
14,in the range around 5.5 µM,C[C@H](NC(=O)c1c(N)nn2cccnc12)c1cc2cccc(Cl)c2c(=O)n1CCc1c[nH]cn1
15,in the range around 5.5 µM,C[C@H](NC(=O)c1c(N)nn2cccnc12)c1nc2c(Cl)cccc2c(=O)n1-c1ccccc1
16,in the range around 5.5 µM,Cc1cccc2c(=O)n(-c3ccccc3)c([C@H](C)NC(=O)c3c(N)nn4cccnc34)nc12
17,in the range around 5.5 µM,C[C@H](NC(=O)c1c(N)nn2cccnc12)c1cc2cccc(Cl)c2c(=O)n1CCc1noc(C(C)(C)C)n1
18,in the range around 5.5 µM,C[C@H](NC(=O)c1c(N)nn2cccnc12)c1nc2ccccc2c(=O)n1-c1ccccc1
19,in the range around 5.5 µM,C[C@H](NC(=O)c1c(N)nn2cccnc12)c1cc2cccc(Cl)c2c(=O)n1-c1ccccc1F
20,in the range around 5.5 µM,C[C@H](NC(=O)c1c(N)nn2cccnc12)c1cc2cccc(Cl)c2c(=O)n1-c1cccc(NS(C)(=O)=O)c1
21,in the range around 0.75 µM,C[C@H](NC(=O)c1c(N)nn2cccnc12)c1cc2cccc(Cl)c2c(=O)n1CCCNS(C)(=O)=O
22,in the range around 5.5 µM,C[C@H](NC(=O)c1c(N)nn2cccnc12)c1nc2ccc(Cl)cc2c(=O)n1-c1ccccc1
23,in the range around 5.5 µM,Cc1ccnc2c(C(=O)N[C@@H](C)c3cc4cccc(Cl)c4c(=O)n3-c3ccccc3)c(N)nn12
24,in the range around 5.5 µM,C[C@H](NC(=O)c1c(N)nn2cccnc12)c1cc2cccc(Cl)c2c(=O)n1CCc1nnn[nH]1
25,in the range around 5.5 µM,Cc1ccccc1-n1c([C@H](C)NC(=O)c2c(N)nn3cccnc23)cc2cccc(Cl)c2c1=O
26,in the range around 5.5 µM,Cc1cccc(-n2c([C@H](C)NC(=O)c3c(N)nn4cccnc34)cc3cccc(Cl)c3c2=O)c1
27,in the range around 5.5 µM,C[C@H](NC(=O)c1nccnc1N)c1nc2cccc(Cl)c2c(=O)n1-c1ccc(F)cc1
28,in the range around 5.5 µM,C[C@H](NC(=O)c1c(N)nn2cccnc12)c1nc2cccc(N3CCOCC3)c2c(=O)n1-c1ccccc1
29,in the range around 5.5 µM,C[C@H](NC(=O)c1c(N)nn2cccnc12)c1cc2cccc(Cl)c2c(=O)n1CCc1nnn(C)n1
30,in the range around 5.5 µM,C[C@H](NC(=O)c1c(N)nn2cccnc12)c1cc2cccc(Cl)c2c(=O)n1C1CC(NS(C)(=O)=O)C1 (stereo partly specified)

# Further lines, the compound ahead of its results:
row,SMILES,IC50
1,C[C@H](NC(=O)c1c(N)nn2cccnc12)c1cc2cccc(Cl)c2c(=O)n1CCS(N)(=O)=O,in the range around 5.5 µM
2,C#CCCn1c([C@H](C)NC(=O)c2c(N)nn3cccnc23)cc2cccc(Cl)c2c1=O,in the range around 5.5 µM
3,C[C@H](NC(=O)c1c(N)nn2cccnc12)c1cc2cccc(Cl)c2c(=O)n1-c1ccccc1NS(C)(=O)=O,in the range around 5.5 µM
4,C[C@H](NC(=O)c1c(N)nn2cccnc12)c1cc2cccc(OCc3cnn(C)c3)c2c(=O)n1-c1ccccc1,in the range around 5.5 µM
5,C[C@H](NC(=O)c1c(N)nn2cccnc12)c1oc2ccc(F)cc2c(=O)c1-c1ccccc1,in the range around 5.5 µM
6,C[C@H](NC(=O)c1c(N)nn2cccnc12)c1cc2cccc(Cl)c2c(=O)n1CCCS(C)(=O)=O,in the range around 5.5 µM
7,C[C@H](NC(=O)c1c(N)nn2cccnc12)c1cc2cccc(Cl)c2c(=O)n1-c1cccc(S(C)(=O)=O)c1,in the range around 5.5 µM
8,C[C@H](NC(=O)c1c(N)nn2cccnc12)c1cc2cccc(Cl)c2c(=O)n1CCc1nnnn1C,in the range around 5.5 µM
9,Cc1noc(CCn2c([C@H](C)NC(=O)c3c(N)nn4cccnc34)cc3cccc(Cl)c3c2=O)n1,in the range around 5.5 µM
10,C[C@H](NC(=O)c1c(N)nn2cccnc12)c1cc2cccc(CC(=O)C(C)(C)C)c2c(=O)n1-c1ccccc1,in the range around 5.5 µM
11,COc1ccccc1-n1c([C@H](C)NC(=O)c2c(N)nn3cccnc23)cc2cccc(Cl)c2c1=O,in the range around 5.5 µM
12,C[C@H](NC(=O)c1c(N)nn2cccnc12)c1cc2cccc(Cl)c2c(=O)n1CCc1ncn[nH]1,in the range around 5.5 µM
13,C[C@H](NC(=O)c1c(N)nn2cccnc12)c1cc2cccc(Cl)c2c(=O)n1CCc1cnn[nH]1,in the range around 5.5 µM
14,C[C@H](NC(=O)c1c(N)nn2cccnc12)c1cc2cccc(Cl)c2c(=O)n1-c1ccccc1O,in the range around 5.5 µM
15,C[C@H](NC(=O)c1c(N)nn2cccnc12)c1cc2cccc(Cl)c2c(=O)n1-c1cccc(O)c1,in the range around 5.5 µM
16,C[C@H](NC(=O)c1c(N)nn2cccnc12)c1cc2cccc(Cl)c2c(=O)n1CCS(=O)(=O)N(C)C,in the range around 0.75 µM
17,C[C@H](NC(=O)c1nccnc1N)c1oc2ccc(F)cc2c(=O)c1-c1ccccc1,in the range around 5.5 µM
18,C[C@H](NC(=O)c1c(N)nn2cccnc12)c1cc2cccc(Cl)c2c(=O)n1-c1ccc(NS(C)(=O)=O)cc1,in the range around 5.5 µM
19,CC(C)C(=O)Cc1cccc2cc([C@H](C)NC(=O)c3c(N)nn4cccnc34)n(-c3ccccc3)c(=O)c12,in the range around 5.5 µM
20,C[C@H](NC(=O)c1c(N)nn2cccnc12)c1cc2cccc(Cl)c2c(=O)n1CCc1ccccc1,in the range around 5.5 µM
21,C[C@H](NC(=O)c1nc(C2CC2)cnc1N)c1cc2cccc(Cl)c2c(=O)n1-c1ccccc1,in the range around 5.5 µM
22,C[C@H](NC(=O)c1c(N)nn2cccnc12)c1cc2cccc(Cl)c2c(=O)n1-c1ccc(O)cc1,in the range around 5.5 µM
23,C[C@H](NC(=O)c1c(N)nn2cccnc12)c1cc2cccc(Cl)c2c(=O)n1Cc1nnn[nH]1,in the range around 5.5 µM
24,CCn1cc(-c2cccc3cc([C@H](C)NC(=O)c4c(N)nn5cccnc45)n(-c4ccccc4)c(=O)c23)cn1,in the range around 5.5 µM
25,C[C@H](NC(=O)c1c(N)nn2cccnc12)c1cc2cccc(-c3cnn(CC(F)(F)F)c3)c2c(=O)n1-c1ccccc1,in the range around 5.5 µM
26,Cc1ccc(-n2c([C@H](C)NC(=O)c3c(N)nn4cccnc34)cc3cccc(Cl)c3c2=O)cc1,in the range around 5.5 µM
